# Test results from US8202834B2, “Fat regulation” (FibroGen, Inc., priority 2002, dated 2012).
# Columns and labels:
# [1] = tested on: GluT-1; experiment: GluT-1 protein levels in H9c2 cells, Western blot; type: cell-based, rat; details: H9c2 cells, 5, 10 and 20 μM, 16 hours; FIG. 9A
# Experimental: (§1) As the compounds and methods of the invention regulate fat metabolism, which is tightly coordinated with glucose regulation, the effect of compounds and methods on glucose uptake and metabolism was analyzed. Human SSC-25 (squamous cell carcinoma) or rat H9c2 (ventricular cardiomyocyte) cells were grown to confluence in 100 mm culture dishes at 37° C., 10% CO2 in DMEM with 10% fetal calf serum. Cells were then washed twice with PBS and incubated with vehicle control, compound D (10 and 25 μM), or compound C (5, 10, and 20 μM) for 16 hours. Plates were placed on ice, culture supernatant was removed, and lysis buffer-1 (LB-1: 10 mM Tris pH 7.4, 1 mM EDTA, 150 mM sodium chloride, 0.5% IGEPAL) was added. Cells were harvested by scraping, incubated for 15 minutes on ice, and then centrifuged at 3,000×g for 5 minutes at 4° C. The supernatant, which represents the cytosolic fraction, was collected and cytosolic proteins were separated under reducing conditions using SDS-polyacrylamide gel electrophoresis (SDS-PAGE) with equal amounts of protein loaded per lane.
# (§2) SDS-PAGE was conducted at 150 V for 2 hours, after which the proteins were transferred to a PVDF membrane at 400 mA for 1.5 hours at 4° C. […]
# [2] = tested on: DEC1/Stra13; experiment: DEC1/Stra13 expression in tissues after 4 days of oral dosing; type: in vivo, mouse; details: oral gavage once per day for 4 days, FIG. 3B
# Experimental: (§3) To further investigate the effect of the methods and compounds of the present invention on expression of adipogenic factors, twelve Swiss Webster male mice (30-32 g) obtained from Simonsen, Inc. were treated by oral gavage once per day for 4 days with 4 ml/kg volume of either 0.5% CMC (0 mg/kg/day), 25 mg/ml compound D in 0.5% CMC (100 mg/kg/day), or 7.5 mg/ml and 25 mg/ml of compound B in 0.5% CMC (30 and 100 mg/kg/day, respectively). Four hours after the final dose, animals were anesthetized, sacrificed, and approximately 150 mg of adipose, heart, kidney, liver, lung, and muscle were isolated and stored in RNALATER solution (Ambion) at −20° C. RNA isolation and gene expression analysis was performed as described in Example 3 above.
# [3] = tested on: PPAR-γ; experiment: PPAR-γ expression in tissue after 4 days of oral dosing; type: in vivo, mouse; details: cardiac tissue; oral gavage once per day for 4 days; FIG. 3C
# Experimental: as §3
# [4] = tested on: HIF-1α; experiment: HIFα stabilization in cells, nuclear fraction Western blot; type: cell-based, human; details: various cell types, overnight incubation; FIG. 8A
# Source text: Compounds of the present invention for use in the present methods stabilize HIFα, inhibit HIF hydroxylase activity and/or HIFα hydroxylation, etc. Thus, compounds can be identified, e.g., by their ability to stabilize HIFα. Stabilization of HIFα using compounds and methods of the present invention was examined as follows. Human cells derived from adenovirus-transformed fetal kidney epithelium (293A), cervical epithelial adenocarcinoma (HeLa), hepatocellular carcinoma (Hep3B), squamous carcinoma (SSC-25), and lung fibroblast (HLF) tissues (see, e.g., American Type Culture Collection, Manassas Va.; and Qbiogene, Carlsbad Calif.) were separately seeded into 100 mm culture dishes and grown at 37° C., 20% O2, 5% CO2 in media as follows: HeLa cells in Dulbecco's Modification of Eagle's Medium (DMEM), 2% fetal bovine serum (FBS); HLF cells in DMEM, 10% FBS; 293A cells in DMEM, 5% FBS; and Hep3B cells in Minimal Essential Medium (MEM), Earle's BSS (Mediatech Inc., Herndon Va.), 2 mM L-glutamine, 0.1 mM non-essential amino acids, 1 mM sodium pyruvate, 10% FBS. When cell layers reached confluence, the media was replaced with OPTI-MEM media (Invitrogen Life Technologies, Carlsbad Calif.) and cell layers were incubated for approximately 24 hours in 20% O2, 5% CO2 at 37° C. […]
# [5] = tested on: GluT-1; experiment: GluT-1 protein levels in SCC-25 cells, Western blot; type: cell-based, human; details: 10 and 25 μM, 16 hours, FIG. 9A
# Experimental: as §1, §2
# [6] = tested on: leptin; experiment: Leptin secretion by preadipocytes in differentiation media; type: cell-based, human; details: 25 or 50 μM, up to 12 days, vs vehicle, FIG. 1B
# Experimental: In a separate experiment, preadipocytes were plated in 24 well plates at 45,000 cells per well and cultured for 3 days in preadipocyte media (Zen-Bio). The media was then changed to differentiation media (Zen-Bio) and cells were treated with either vehicle control (0.5% DMSO) or compound B at 25 or 50 μM for up to 12 days. Half of the culture media was exchanged every 3 days and cell-free culture supernatants were generated and analyzed for levels of leptin secretion using a QUANTIKINE immunoassay (R&D Systems) according to the manufacturer's instructions.
# [7] = tested on: DEC1/Stra13; experiment: DEC1/Stra13 expression time course in liver after oral gavage; type: in vivo; details: mouse liver, 100 mg/kg oral gavage, 4-72 h; FIG. 3A
# Experimental: (§4) The ability of the present compounds and methods to regulate fat metabolism, in particular, to increase expression of factors involved in fat transport, utilization, and storage, was analyzed as follows. To determine gene induction patterns over time, twenty four Swiss Webster male mice (30-32 g) were obtained from Simonsen, Inc. and treated by oral gavage with a 4 ml/kg volume of either 0.5% carboxymethyl cellulose (CMC; Sigma-Aldrich, St. Louis Mo.) (0 mg/kg) or […] compound B (25 mg/ml in 0.5% CMC) (100 mg/kg). At 4, 8, 16, 24, 48, or 72 hours after the final dose, animals were anesthetized with isoflurane. The mice were then sacrificed and tissue samples of kidney, liver, brain, lung, and heart were isolated and stored in RNALATER solution (Ambion) at −80° C.
# To further investigate the effect of the methods and compounds of the present invention on expression of genes associated with fat metabolism and adipogenesis, the experiments performed as described in Example 3 above were analyzed for specific adipogenic factors. […] DEC1/Stra13 is known to repress expression of PPAR-γ2 nuclear hormone receptor, which is necessary for adipocyte differentiation. […]
# [8] = tested on: HIF-1α; experiment: HIF-1α in nuclear fractions, TRANSAM HIF-1 ELISA; type: cell-based, human; details: 293A and Hep3B cells, vs vehicle; FIG. 8B
# Source text: Compounds of the present invention for use in the present methods stabilize HIFα, inhibit HIF hydroxylase activity and/or HIFα hydroxylation, etc. Thus, compounds can be identified, e.g., by their ability to stabilize HIFα. Stabilization of HIFα using compounds and methods of the present invention was examined as follows. Human cells derived from adenovirus-transformed fetal kidney epithelium (293A), cervical epithelial adenocarcinoma (HeLa), hepatocellular carcinoma (Hep3B), squamous carcinoma (SSC-25), and lung fibroblast (HLF) tissues (see, e.g., American Type Culture Collection, Manassas Va.; and Qbiogene, Carlsbad Calif.) were separately seeded into 100 mm culture dishes and grown at 37° C., 20% O2, 5% CO2 in media as follows: HeLa cells in Dulbecco's Modification of Eagle's Medium (DMEM), 2% fetal bovine serum (FBS); HLF cells in DMEM, 10% FBS; 293A cells in DMEM, 5% FBS; and Hep3B cells in Minimal Essential Medium (MEM), Earle's BSS (Mediatech Inc., Herndon Va.), 2 mM L-glutamine, 0.1 mM non-essential amino acids, 1 mM sodium pyruvate, 10% FBS. When cell layers reached confluence, the media was replaced with OPTI-MEM media (Invitrogen Life Technologies, Carlsbad Calif.) and cell layers were incubated for approximately 24 hours in 20% O2, 5% CO2 at 37° C. A compound of the invention (compound B, D, F, G, or H) or vehicle control (0.5 to 1% DMSO) was then added to existing medium, and incubation was continued overnight.
# Alternatively, nuclear fractions were prepared using a nuclear extract kit (Active Motif, Carlsbad Calif.) and were analyzed for HIF-1α using a TRANSAM HIF-1 ELISA kit (Active Motif) according to the manufacturer's instructions.
# [9] = tested on: aldolase; experiment: Aldolase expression in 293A cells, Western blot; type: cell-based, human
# Experimental: In a further analysis of the methods and compounds effect on glucose regulation, human 293A cells were plated confluent in 35 mm culture dishes and cultured for 1 day at 37° C., 10% CO2 in DMEM containing 5% FBS and 1% penicillin-streptomycin. The media was changed to OPTI-MEM media (Invitrogen Life Technologies) and incubation was continued for an additional 18 to 24 hours. Vehicle control or compound B was then added to the media and cells were incubated for an additional 24, 48 or 72 hours. Plates were placed on ice, culture supernatant was removed, and lysis buffer-1 (LB-1: 10 mM Tris pH 7.4, 1 mM EDTA, 150 mM sodium chloride, 0.5% IGEPAL) was added. Cell lysates were harvested, cytosolic fractions were collected, and cytosolic proteins were separated using SDS-PAGE as described above. After separation, the proteins were transferred to a PVDF membrane at 400 mA for 1.5 hours at 4° C. The membrane was incubated in blocking buffer for 2 hours or overnight and washed once with T-TBS prior to addition of anti-aldolase antibody diluted to working concentration in blocking buffer. After overnight incubation with gentle agitation at 4° C., membranes were washed 4 times with T-TBS, followed by incubation for one hour at room temperature with conjugated secondary antibody diluted in blocking buffer. […]
# [10] = tested on: PFK-P, PFK-L, enolase-1, GluT-1, lactate dehydrogenase-1, aldolase-1, hexokinase-1; experiment: Expression of glucose regulation genes in kidney, liver and lung after oral gavage; type: in vivo; details: mouse kidney, liver, lung; 100 mg/kg oral gavage; FIGS. 10A-10C
# Experimental: as §4
# In the time course, most mRNA levels peaked early following administration of compound, then returned to control levels after 24 to 48 hours. […] These differences relate, in part, to the different degree to which glycolytic activity provides a critical source of energy for the respective tissue, especially during times of stress.
# [11] = adipose, kidney, liver and muscle, 4 h after final dose
SMILES,protein levels of GluT-1 [1],"DEC1/Stra13 expression [2, 11]",PPAR-γ expression [3],HIFα stabilization [4],protein levels of GluT-1 [5],leptin secretion [6],expression of DEC1/Stra13 [7],DEC1/Stra13 expression ([2]; lung and heart),stabilization and accumulation of HIFα [8],"aldolase expression ([9]; 293A cells, 24, 48 and 72 hours, FIG. 9B)","β-tubulin expression ([9]; 293A cells, specificity control)",expression of genes encoding enzymes involved in glucose regulation [10]
"O=C(O)CNC(=O)c1ncc2cc(Oc3ccccc3)ccc2c1O [compound C, [(4-Hydroxy-7-phenoxy-isoquinoline-3-carbonyl)-amino]-acetic acid]",increased protein levels of GluT-1,,,,,,,,,,,
"O=C(O)c1c[nH]c2c(ccc3cccnc32)c1=O [compound D, 4-Oxo-1,4-dihydro-[1,10]phenanthroline-3-carboxylic acid]",,increased DEC1/Stra13 expression,decreased PPAR-γ expression,stabilized HIFα,increased protein levels of GluT-1,,,,,,,
"O=C(O)CNC(=O)c1nc(Cl)c2ccccc2c1O [compound B, [(1-Chloro-4-hydroxy-isoquinoline-3-carbonyl)-amino]-acetic acid]",,increased DEC1/Stra13 expression,decreased PPAR-γ expression,,,dose-dependent increase in leptin secretion,initially increased,increased DEC1/Stra13 expression,stabilization and accumulation of HIFα,increased over time,no increases,increased in a coordinated fashion
